Among the data in publication PMC11062922 (Nature Chemical Biology, 2023) are CATDS, potency estimated from few doses and CATDSPKN3 values, retold here.

Each structure is given as a SMILES string. Where two headings read alike, the source gives them in different places.

One assay addresses T1, PDGFRB (Homo sapiens, UniProt P09619).
T1 construct: a mixture of lysates from five cancer cell lines; endogenous in cells
Nature of the assay: Kinobeads competition binding: PDGFRB.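 Note: share of total target engagement due to this protein at one drug concentration.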 The settings on record: target PDGFRB. The source says: Supplement 41589_2023_1459_MOESM4_ESM.xlsx, sheet "CATDS matrix" | column: PDGFRB

The subject of the next assay is NEK1. Nature of the assay: Kinobeads competition binding: NEK1. Also on record: species or system human. The note with it: target NEK1.
For a further assay, the system named is MAP3K2. Nature of the assay: Kinobeads competition binding: MAP3K2. Further details: species or system human. The note with it: target MAP3K2.
The next assay deals with T2, ABL2 (Homo sapiens, UniProt P42684).
T2 construct: endogenous in cells
T2 sequence (P42684 whole entry): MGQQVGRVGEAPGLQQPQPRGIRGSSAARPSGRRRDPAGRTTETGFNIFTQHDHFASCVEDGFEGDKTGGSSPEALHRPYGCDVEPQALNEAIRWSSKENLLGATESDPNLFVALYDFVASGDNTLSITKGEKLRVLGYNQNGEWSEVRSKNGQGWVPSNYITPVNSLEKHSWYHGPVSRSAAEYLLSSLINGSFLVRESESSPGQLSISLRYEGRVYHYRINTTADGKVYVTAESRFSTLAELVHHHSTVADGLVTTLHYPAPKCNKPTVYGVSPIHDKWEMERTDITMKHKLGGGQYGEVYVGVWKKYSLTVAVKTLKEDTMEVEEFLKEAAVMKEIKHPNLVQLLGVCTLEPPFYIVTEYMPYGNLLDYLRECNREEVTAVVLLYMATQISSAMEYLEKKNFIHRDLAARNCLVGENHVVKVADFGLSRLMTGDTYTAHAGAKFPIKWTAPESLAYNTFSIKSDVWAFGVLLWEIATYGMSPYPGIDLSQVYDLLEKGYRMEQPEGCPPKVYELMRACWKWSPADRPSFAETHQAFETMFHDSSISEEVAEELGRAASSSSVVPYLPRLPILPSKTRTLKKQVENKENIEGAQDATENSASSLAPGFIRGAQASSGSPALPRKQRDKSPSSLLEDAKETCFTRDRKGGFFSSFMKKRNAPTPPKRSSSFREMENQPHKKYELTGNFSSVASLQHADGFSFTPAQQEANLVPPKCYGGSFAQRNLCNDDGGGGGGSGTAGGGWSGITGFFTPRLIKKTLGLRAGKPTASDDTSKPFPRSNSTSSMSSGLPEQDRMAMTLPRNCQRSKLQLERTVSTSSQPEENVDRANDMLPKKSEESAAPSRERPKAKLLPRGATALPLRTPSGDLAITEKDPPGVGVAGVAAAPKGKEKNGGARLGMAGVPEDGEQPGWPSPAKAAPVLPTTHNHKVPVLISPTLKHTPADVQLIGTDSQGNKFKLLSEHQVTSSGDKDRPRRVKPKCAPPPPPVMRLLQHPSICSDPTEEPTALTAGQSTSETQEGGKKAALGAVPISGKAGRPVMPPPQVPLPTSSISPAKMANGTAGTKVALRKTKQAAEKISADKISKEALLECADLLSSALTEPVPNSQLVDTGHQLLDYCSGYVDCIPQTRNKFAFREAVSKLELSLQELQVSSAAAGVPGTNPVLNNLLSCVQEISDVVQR
Nature of the assay: Kinobeads competition binding: ABL2. The note with it: target ABL2.

The test system of the next assay is MAPK8. Nature of the assay: Kinobeads competition binding: MAPK8. Further details: species or system human. The settings on record: target MAPK8.
A further assay addresses T3, DAPK3 (Homo sapiens, UniProt O43293).
T3 construct: endogenous in cells
Nature of the assay: Kinobeads competition binding: DAPK3.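 Note: share of all-target engagement taken by this protein at its own Kdapp concentration.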 The note with it: target DAPK3.

The test system of another assay is MAPK1. Kind of assay: Kinobeads competition binding: MAPK1. Further details: species or system human. The settings on record: target MAPK1.
In a further assay the test system is IRAK1. Kind of assay: Kinobeads competition binding: IRAK1. Also on record: species or system human. The note with it: target IRAK1.
A further assay deals with T4, CDKL5 (Homo sapiens, UniProt O76039).
T4 construct: endogenous in cells
T4 sequence (O76039 1-960): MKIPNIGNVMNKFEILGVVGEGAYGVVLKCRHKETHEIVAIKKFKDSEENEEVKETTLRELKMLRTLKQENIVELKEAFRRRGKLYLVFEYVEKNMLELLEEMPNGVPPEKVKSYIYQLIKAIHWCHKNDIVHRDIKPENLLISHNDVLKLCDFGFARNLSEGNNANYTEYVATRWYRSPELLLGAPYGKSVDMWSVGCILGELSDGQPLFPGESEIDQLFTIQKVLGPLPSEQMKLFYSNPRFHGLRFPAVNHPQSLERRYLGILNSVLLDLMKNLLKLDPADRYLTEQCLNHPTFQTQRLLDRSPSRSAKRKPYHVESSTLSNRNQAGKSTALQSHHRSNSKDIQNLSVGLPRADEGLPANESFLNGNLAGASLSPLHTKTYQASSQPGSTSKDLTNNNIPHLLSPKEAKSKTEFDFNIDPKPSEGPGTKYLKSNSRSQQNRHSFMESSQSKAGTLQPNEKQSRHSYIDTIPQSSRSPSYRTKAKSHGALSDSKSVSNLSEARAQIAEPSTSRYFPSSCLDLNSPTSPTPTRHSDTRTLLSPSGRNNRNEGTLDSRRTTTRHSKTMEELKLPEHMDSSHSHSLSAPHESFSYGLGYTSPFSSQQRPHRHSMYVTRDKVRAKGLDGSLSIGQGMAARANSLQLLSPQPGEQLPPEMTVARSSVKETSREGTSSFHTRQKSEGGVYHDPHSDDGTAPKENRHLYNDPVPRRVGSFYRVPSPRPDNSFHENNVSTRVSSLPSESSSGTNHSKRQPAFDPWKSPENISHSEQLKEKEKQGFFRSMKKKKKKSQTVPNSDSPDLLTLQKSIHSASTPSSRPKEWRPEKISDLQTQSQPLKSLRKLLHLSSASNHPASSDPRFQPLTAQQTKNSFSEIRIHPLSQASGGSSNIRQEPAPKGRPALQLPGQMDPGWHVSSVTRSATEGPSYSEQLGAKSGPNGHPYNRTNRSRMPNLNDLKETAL
Nature of the assay: Kinobeads competition binding: CDKL5. The settings on record: target CDKL5. From the text:
Supplement 41589_2023_1459_MOESM4_ESM.xlsx, sheet "CATDS matrix" | column: CDKL5

For a further assay, the target named is PKN3 (Homo sapiens, UniProt Q6P5Z2). Nature of the assay: Kinobeads two-dose competition binding: PKN3. Also on record: endogenous in cells. The settings on record: for CATDSPKN3: selectivity score from Kinobeads two-dose data. From the text: Briefly, Kinobeads comprise seven broad-spectrum small molecule kinase inhibitors immobilized on Sepharose beads. […]. Compounds of interest are set to compete for target protein binding with Kinobeads in the lysate and the amount of a given protein bound to Kinobeads in the presence of a compound can be quantified relative to a dimethylsulfoxide (DMSO) vehicle control by label-free mass spectrometry. This assay measures the physical interaction of a compound with thousands of endogenous proteins in parallel and, when systematically increasing the concentration of competitor, enables the calculation of an apparent interaction constant ( Kdapp ) for each compound and protein.
Sequence of PKN3 (Q6P5Z2 whole entry): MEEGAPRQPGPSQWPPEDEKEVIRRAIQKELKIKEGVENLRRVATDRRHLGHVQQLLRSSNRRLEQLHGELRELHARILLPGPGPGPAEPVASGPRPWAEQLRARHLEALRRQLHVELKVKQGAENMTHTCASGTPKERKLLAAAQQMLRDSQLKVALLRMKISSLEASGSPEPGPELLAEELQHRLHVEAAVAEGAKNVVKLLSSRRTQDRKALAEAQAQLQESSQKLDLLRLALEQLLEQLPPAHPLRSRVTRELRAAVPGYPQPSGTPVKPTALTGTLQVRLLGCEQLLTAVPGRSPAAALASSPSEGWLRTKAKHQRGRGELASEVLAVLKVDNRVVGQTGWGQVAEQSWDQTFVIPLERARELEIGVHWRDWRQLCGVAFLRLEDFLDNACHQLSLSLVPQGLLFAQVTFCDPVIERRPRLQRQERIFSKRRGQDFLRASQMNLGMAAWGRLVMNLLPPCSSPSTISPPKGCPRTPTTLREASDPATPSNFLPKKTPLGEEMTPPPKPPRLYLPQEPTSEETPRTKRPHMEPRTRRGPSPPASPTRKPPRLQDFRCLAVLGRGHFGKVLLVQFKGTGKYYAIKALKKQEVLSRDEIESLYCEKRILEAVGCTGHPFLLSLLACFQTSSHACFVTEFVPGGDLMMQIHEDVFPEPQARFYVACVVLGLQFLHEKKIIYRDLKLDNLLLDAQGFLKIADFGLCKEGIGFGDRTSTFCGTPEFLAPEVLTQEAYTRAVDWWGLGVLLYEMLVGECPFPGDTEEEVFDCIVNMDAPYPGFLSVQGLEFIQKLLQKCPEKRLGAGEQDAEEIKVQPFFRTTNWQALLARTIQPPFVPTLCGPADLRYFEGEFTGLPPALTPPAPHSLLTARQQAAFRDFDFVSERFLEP
Kinobeads pulldown experiments were performed as described previously[13],[14],[17] with minor modification. […] The protein concentration was adjusted to 5 mg ml^−1. Kinase inhibitors were spiked into 0.5 ml of cell lysate at final concentrations of 100 and 1,000 nM (or DMSO, 0.3, 1, 3, 10, 30, 100, 300 and 1,000 nM for full dose experiments). […] Lysates were incubated for 45 min at 4 °C. Subsequently, lysates were incubated with Kinobeads ε (17.5 µl of settled beads) for 30 min at 4 °C. To assess the degree of protein depletion from the lysates by Kinobeads, the flow through of the DMSO control was recovered for a pulldown of pulldown experiment where the lysate was incubated a second time with fresh Kinobeads. Beads were washed in three steps with buffer containing 0.4%, 0.2% and no IGEPAL. Bound proteins were reduced with 50 mM DTT in 8 M Urea, 40 mM Tris-HCl pH 7.4 for 30 min at room temperature. After alkylation with 55 mM chloroacetamide, the urea concentration was reduced to 1–2 M and proteins were digested with trypsin. Acidified peptides were desalted and concentrated using SepPak tC18 µEluation plates (Waters). Samples were frozen, dried by vacuum centrifugation and stored at −20 °C.
Each kinase inhibitor was processed together with all DMSO controls of the same plate. Additionally, each search was supplemented with five high quality DMSO controls for consistent peptide identification and protein grouping. The resultant file (proteinGroups.txt) was used for subsequent filtering, normalization, data visualization and target annotation that was automatically performed by a data processing pipeline built in house that used R (including the ‘drc’ and ‘heatmap’ packages). First, reverse hits, potential contaminants and not quantified proteins in the DMSO control samples were discarded. Protein raw and label-free quantification intensities were normalized to the median DMSO control intensity to obtain relative residual binding intensities for each protein group at every inhibitor concentration and standard deviations of the DMSO control intensity were calculated. IC50 values were estimated based on the following equation IC50=I×100−inhibition/inhibition where [I] is the inhibitor concentration that was used for IC50 calculation and ‘inhibition’ the relative residual binding intensity. […]. Estimated Kdapp values were then calculated by multiplying the estimated IC50 values with a protein-dependent correction factor that was limited to a maximum value of one. The correction factor accounts for the depletion of a target protein from the lysate by Kinobeads. The depletion can be measured by the ratio of the amount of protein captured in two consecutive pulldowns of the same DMSO control lysate. In this study, correction factors were determined in separate experiments using the same lysate mixture and the same bead batch. Correction factors were set to the median of all correction factors. Targets of kinase inhibitors were annotated using the previously published random forest classifier. A training data set was annotated manually. […]

The mark [1] stands for this setting: Kinobeads two-dose, read-out: Kdapp PKN3.

T1 sequence (P09619 33-1106): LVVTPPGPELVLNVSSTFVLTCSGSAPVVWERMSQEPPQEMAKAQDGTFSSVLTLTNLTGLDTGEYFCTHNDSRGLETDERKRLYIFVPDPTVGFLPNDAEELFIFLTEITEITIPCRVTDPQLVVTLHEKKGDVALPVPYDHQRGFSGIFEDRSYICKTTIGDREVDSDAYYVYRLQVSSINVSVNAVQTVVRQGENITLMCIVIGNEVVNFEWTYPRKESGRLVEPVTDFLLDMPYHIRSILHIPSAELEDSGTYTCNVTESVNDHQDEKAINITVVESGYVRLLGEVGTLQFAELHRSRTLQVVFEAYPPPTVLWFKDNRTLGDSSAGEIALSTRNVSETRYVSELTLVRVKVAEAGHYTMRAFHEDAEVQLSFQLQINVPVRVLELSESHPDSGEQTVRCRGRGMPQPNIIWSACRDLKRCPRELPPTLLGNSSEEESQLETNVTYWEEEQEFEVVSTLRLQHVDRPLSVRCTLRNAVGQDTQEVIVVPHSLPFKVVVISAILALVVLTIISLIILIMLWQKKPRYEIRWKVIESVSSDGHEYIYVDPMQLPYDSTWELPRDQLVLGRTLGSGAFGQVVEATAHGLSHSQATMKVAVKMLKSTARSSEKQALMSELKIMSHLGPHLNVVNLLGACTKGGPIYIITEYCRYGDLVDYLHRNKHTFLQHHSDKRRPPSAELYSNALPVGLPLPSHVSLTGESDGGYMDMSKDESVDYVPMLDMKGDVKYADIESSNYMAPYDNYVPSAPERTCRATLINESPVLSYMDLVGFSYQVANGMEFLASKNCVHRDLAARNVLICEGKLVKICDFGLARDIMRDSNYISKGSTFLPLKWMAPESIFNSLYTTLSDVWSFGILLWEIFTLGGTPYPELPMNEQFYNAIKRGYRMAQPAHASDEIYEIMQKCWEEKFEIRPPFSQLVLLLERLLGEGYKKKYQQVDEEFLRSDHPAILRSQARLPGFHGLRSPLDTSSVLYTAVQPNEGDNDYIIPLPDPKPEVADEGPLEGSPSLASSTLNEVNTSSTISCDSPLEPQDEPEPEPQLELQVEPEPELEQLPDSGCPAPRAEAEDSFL
T3 sequence (O43293 whole entry): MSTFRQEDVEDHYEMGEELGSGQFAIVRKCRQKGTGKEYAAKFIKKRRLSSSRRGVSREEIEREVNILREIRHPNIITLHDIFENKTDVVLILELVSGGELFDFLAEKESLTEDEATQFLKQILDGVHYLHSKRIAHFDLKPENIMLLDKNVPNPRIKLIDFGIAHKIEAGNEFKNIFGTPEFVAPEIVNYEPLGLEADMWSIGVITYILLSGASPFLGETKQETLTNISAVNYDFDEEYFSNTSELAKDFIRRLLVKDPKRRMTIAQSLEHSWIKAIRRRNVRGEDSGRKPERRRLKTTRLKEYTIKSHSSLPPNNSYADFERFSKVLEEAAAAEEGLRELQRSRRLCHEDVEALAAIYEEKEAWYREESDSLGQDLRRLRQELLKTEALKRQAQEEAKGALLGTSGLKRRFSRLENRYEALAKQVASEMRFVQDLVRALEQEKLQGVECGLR

As to `CCN1CCN(Cc2ccc(Nc3ncc(F)c(-c4cc(F)c5nc(C)n(C(C)C)c5c4)n3)nc2)CC1` [Abemaciclib], the CATDS at PDGFRB, with NEK1, in the assay with MAP3K2, on ABL2, in the assay on MAPK8 and at DAPK3 was 0 throughout. For the same compound, the CATDS with MAPK1 is 0; in the assay with IRAK1, 0.02986; at CDKL5, 0.6907.

Take `N#CC1(c2ccc(NC(=O)c3cccnc3NCc3ccncc3)cc2)CCCC1` [Apatinib]: the CATDS at PDGFRB, in the assay on NEK1, with MAP3K2, at ABL2, with MAPK8 and on DAPK3 was 0 in each case. For the same compound, the CATDS with MAPK1, in the assay with IRAK1 and at CDKL5 was 0 each time.

`NCc1ccc(-c2nc(-c3ccncc3)c(-c3ccc(Cl)c(O)c3)[nH]2)cc1` [SB-476429-A]: the potency estimated from few doses at PKN3 (read-out: Kdapp PKN3) was 36 nM. For the same compound, on PKN3, the CATDSPKN3 stood at 0.21.

For the compound `CN(C)C/C=C/C(=O)Nc1cc2c(Nc3ccc(F)c(Cl)c3)ncnc2cc1O[C@H]1CCOC1` [Afatinib], the CATDS on PDGFRB and at CDKL5 was 0 in each case.

On to `CCn1c(-c2nonc2N)nc2c(C#CC(C)(C)O)nc(OCCNC)cc21` [GSK949675A], for which the potency estimated from few doses at PKN3 (setting [1]) is 2.5 nM. The compound also displayed a CATDSPKN3 at PKN3 of 0.86.

Consider `C[C@]12O[C@H](C[C@]1(O)CO)n1c3ccccc3c3c4c(c5c6ccccc6n2c5c31)CNC4=O` [Lestaurtinib], for which, on PKN3 (read-out: Lestaurtinib Drugmatrix value, Gene Name PKN3, one column per experiment number and replicate (R1-R3)), the potency estimated from few doses was 755 nM.

For `Nc1ncnc2[nH]c(-c3ccccc3)nc12` [AH5015_KCGS], the CATDS on PDGFRB, in the assay on NEK1, in the assay with MAP3K2, on ABL2, in the assay on MAPK8 and at DAPK3 was 0 each time. Further, the CATDS in the assay on MAPK1, in the assay with IRAK1 and at CDKL5 was 0 in each case.

On to `CCn1c(-c2nonc2N)nc2c(C#CC(C)(C)O)nc(OCCN)cc21` [GSK902056A], for which the potency estimated from few doses at PKN3 (setting [1]) is 1 nM. The CATDSPKN3 at PKN3 came out at 0.93.

In the case of `CCc1cc2c(cc1N1CCC(N3CCOCC3)CC1)C(C)(C)c1[nH]c3cc(C#N)ccc3c1C2=O` [Alectinib], the CATDS on PDGFRB, in the assay on NEK1, with MAP3K2, on ABL2, in the assay with MAPK8 and at DAPK3 was 0 throughout. Moreover, the CATDS in the assay with MAPK1, with IRAK1 and at CDKL5 was 0 each time.
